Results: US9938562B2, “Naphthalene derived chromogenic enzyme substrates” (Glycosynth Limited, priority 2013, dated 2018)
Like-named read-outs stand apart in the source and are kept apart here.

Key:
[1] = tested on: Escherichia coli NCTC 10418; assay: Agar plate multi-point inoculation, colour; format: cell-based
[2] = tested on: Klebsiella pneumoniae NCTC 9528; assay: Agar plate multi-point inoculation, colour; format: cell-based
[3] = tested on: Providencia rettgeri NCTC 7475; assay: Agar plate multi-point inoculation, colour; format: cell-based
[4] = tested on: Enterobacter cloacae NCTC 11936; assay: Agar plate multi-point inoculation, colour; format: cell-based
[5] = tested on: Serratia marcescens NCTC 10211; assay: Agar plate multi-point inoculation, colour; format: cell-based
[6] = tested on: Salmonella typhimurium NCTC 74; assay: Agar plate multi-point inoculation, colour; format: cell-based
[7] = tested on: Pseudomonas aeruginosa NCTC 10662; assay: Agar plate multi-point inoculation, colour; format: cell-based
[8] = tested on: Yersinia enterocolitica NCTC 11176; assay: Agar plate multi-point inoculation, colour; format: cell-based; conditions: Columbia agar, FAC 500 mg/L, substrate 300 mg/L, 37° C. 18 h in air
[9] = tested on: Burkholderia cepacia NCTC 10931; assay: Agar plate multi-point inoculation, colour; format: cell-based; conditions: Columbia agar, FAC 500 mg/L, substrate 300 mg/L, 37° C. 18 h in air
[10] = tested on: Acinetobacter baumannii NCTC 19606; assay: Agar plate multi-point inoculation, colour; format: cell-based
[11] = tested on: Steptococcus pyogenes NCTC 8306; assay: Agar plate multi-point inoculation, colour; format: cell-based
[12] = tested on: Staphylococcus aureus (MRSA) NCTC 11939; assay: Agar plate multi-point inoculation, colour; format: cell-based; conditions: Columbia agar, FAC 500 mg/L, substrate 300 mg/L, 37° C. 18 h in air
[13] = tested on: Staphylococcus aureus NCTC 6571; assay: Agar plate multi-point inoculation, colour; format: cell-based
[14] = tested on: Staphylococcus epidermidis NCTC 11047; assay: Agar plate multi-point inoculation, colour; format: cell-based
[15] = tested on: Listeria monocytogenes NCTC 11994; assay: Agar plate multi-point inoculation, colour; format: cell-based
[16] = tested on: Enterococcus faecium NCTC 7171; assay: Agar plate multi-point inoculation, colour; format: cell-based
[17] = tested on: Enterococcus faecalis NCTC 775; assay: Agar plate multi-point inoculation, colour; format: cell-based
[18] = tested on: Bacillus subtilis NCTC 9372; assay: Agar plate multi-point inoculation, colour; format: cell-based
[19] = tested on: Candida albicans ATCC 90028; format: cell-based; conditions: Columbia agar, FAC 500 mg/L, substrate 300 mg/L, 37° C. 18 h in air
[20] = tested on: Candida glabrata NCPF 3943; assay: Agar plate multi-point inoculation, colour; format: cell-based
[21] = tested on: Gram-positive or Gram-negative strains; assay: Toxicity / growth of microorganisms on substrate agar plates; format: cell-based; conditions: substrate 300 mg/L
Experimental: This compound was tested on agar plates by multi-point inoculation. The plates were made from Columbia agar (Oxoid, Basingstoke, UK) (100 ml) supplemented with ferric ammonium citrate (FAC) (50 mg). After the agar had been autoclaved (121° C.) and cooled to 50° C., a filter sterilized solution of the substrate (8) (30 mg) dissolved in N-methylpyrrolidone (NMP) (200 μL) was added, thus giving a substrate concentration of 300 mg/L. After pouring, the plates were inoculated with a range of microorganisms and incubated at 37° C. for 18 h in air (Table 1).
In the publication of Zincke and Fries, the authors reported that treatment of 1,4,6,7-tetrabromo-DHN (20) with tin (II) chloride led to the removal of the bromines in the 1 and 4 positions. Their work was repeated and the expected 6,7-dibromo-DHN (21) was obtained smoothly and in good yield (68%). 6,7-Dibromo-DHN (21) is isomeric with the 1,4-dibromo compound which had proven unsuccessful as an aglycone for the detection of microorganisms. Notwithstanding this latter fact, we proceeded to evaluate the properties of 6,7-dibromo-DHN […] as an aglycone for artificial chromogenic enzyme substrates. […]

range of microorganisms = assay: Agar plate evaluation with a range of microorganisms (hue, diffusion, background); format: cell-based; conditions: for colour (hue) after hydrolysis: agar plates with FAC
[22] = tested on: Burkholderia cepacia 1222; assay: Agar plate multi-point inoculation, colour; format: cell-based; conditions: Columbia agar, FAC 500 mg/L, substrate 300 mg/L, 37° C. 18 h in air
[23] = tested on: Citrobacter freundii NCTC 9750 or 46262; assay: Agar plate multi-point inoculation, colour; format: cell-based; conditions: Columbia agar, FAC 500 mg/L, substrate 300 mg/L, 37° C. 18 h in air
[24] = tested on: Morganella morganii 462403 (wild); assay: Agar plate multi-point inoculation, colour; format: cell-based; conditions: Columbia agar, FAC 500 mg/L, substrate 300 mg/L, 37° C. 18 h in air
[25] = Columbia agar, FAC 500 mg/L, substrate 300 mg/L, 37° C. 18 h in air

| SMILES | Colour [1, 25] | Colour [2, 25] | Colour [3, 25] | Colour [4, 25] | Colour [5, 25] | Colour [6, 25] | Colour [7, 25] | Colour [8] | Colour [9] | Colour [10, 25] | Colour [11, 25] | Colour [12] | Colour [13, 25] | Colour [14, 25] | Colour [15, 25] | Colour [16, 25] | Colour [17, 25] | Colour [18, 25] | Colour [19] | Colour [20, 25] | other results |
| --- | --- | --- | --- | --- | --- | --- | --- | --- | --- | --- | --- | --- | --- | --- | --- | --- | --- | --- | --- | --- | --- |
| OCC1OC(Oc2cc3ccccc3cc2O)C(O)C(O)C1O [Compound 4, DHN-β-D-glucopyranoside] | Tr. | ++ | ++ | + | ++ | − | − | − | − | − | − | − | − | − | + | + | + | + | − | − | melting point: > 210 °C (dec.) |
| OCC1OC(Oc2cc3ccccc3cc2O)C(O)C(O)C1O [Compound 8, DHN-β-D-galactopyranoside] | ++ | ++ | − | ++ | + | − | − | − | − | − | − | − | − | − | − | Tr. | − | − | − | − | toxicity to strains tested [21]: no obvious toxicity; colour (hue) after hydrolysis (range of microorganisms): strong purple-maroon colour; formation of coloured chelate (range of microorganisms; plates incubated under anaerobic conditions): still formed; sensitivity after autoclaving substrate in agar (range of microorganisms; substrate added prior to autoclaving, 121° C. for 20 minutes): no decrease in sensitivity; melting point: > 230 °C (dec.) |
| O=P([O-])([O-])Oc1cc2ccccc2cc1O.[Na+].[Na+] [Compound 17, DHN-phosphate Disodium Salt] |  |  |  |  |  |  |  | +/− | +/− |  |  | + |  |  |  |  |  |  | − |  | Colour [1]: +/−; Colour [2]: ++; Colour [3]: +; Colour [4]: +/−; Colour [5]: ++; Colour [6]: ++; Colour [7]: −; Colour [10]: −; Colour [11]: −; Colour [13]: +; Colour [14]: −; Colour [15]: +; Colour [16]: −; Colour [17]: −; Colour [18]: −; Colour [20]: − |
| OC[C@H]1O[C@@H](Oc2cc3cc(Br)c(Br)cc3cc2O)C(O)C1O (stereo partly drawn) [Compound 23, 6,7-Dibromo-DHN-β-D-ribofuranoside] | − |  | − | ++ | ++ | ++ | + | − |  |  | − | − | − | − | − | − | − | − | − | − | Colour [22]: +/−; Colour [23]: ++; Colour [24]: ++; growth of Gram-positive bacteria [21]: mainly suppressed; colour (hue) after hydrolysis (range of microorganisms): largely discrete red-brown or maroon colonies |
